The subject of series [1] is dengue virus type 2. The series is described as follows: Antiviral activity against Dengue virus 2 NGC infected in african green monkey Vero cells assessed as reduction in viral titer after 48 hrs by plaque assay. The format is functional, organism-based.
Series [2] can be described thus: Oral bioavailability in AG129 mouse plasma at 50 mg/kg/day after 1 to 24 hrs by LC-MS/MS. It is filed as ADME, organism-based.
Series [3] has as its system dengue virus type 2. Nature of the series: Antiviral activity against Dengue virus 2 NGC infected through intraperitoneal route in AG129 mouse assessed as reduction in peak plasma viremia at 50 mg/kg, ip bid measured on day 3 by plaque assay relative to vehicle-treated control. The format is functional.
Series [4] relates to dengue virus type 2. The series is described as follows: Antiviral activity against Dengue virus 2 NGC infected through intraperitoneal route in AG129 mouse assessed as reduction of viral load in spleen at 50 mg/kg, ip bid measured on day 3 by plaque assay relative to vehicle-treated control. It is filed as functional.
For series [5], the system named is dengue virus type 2. The series is described as follows: Antiviral activity against Dengue virus 2 NGC infected through intraperitoneal route in AG129 mouse assessed as reduction of viral load in liver at 50 mg/kg, ip bid measured on day 3 by plaque assay relative to vehicle-treated control. It is filed as functional.
For series [6], the system named is dengue virus type 2. The series is described as follows: Antiviral activity against Dengue virus 2 NGC infected in human A549 cells assessed as reduction in virus replication after 48 hrs by renilla luciferase reporter gene assay. It is filed as functional, organism-based. Conditions: A549, 48 h. A general note: A reporter such as luciferase makes a cellular process visible.

For series [7], the system named is dengue virus type 2. The series is described as follows: Antiviral activity against Dengue virus 2 NGC infected in african green monkey Vero cells assessed as inhibition of viral yield after 48 hrs. The format is functional, organism-based.
The test system of series [8] is dengue virus type 1. Nature of the series: Antiviral activity against Dengue virus 1 Hawaii infected in african green monkey Vero cells assessed as inhibition of viral yield after 48 hrs. It is filed as functional, organism-based.
The subject of series [9] is dengue virus type 3. The series is described as follows: Antiviral activity against Dengue virus 3 H87 infected in african green monkey Vero cells assessed as inhibition of viral yield after 48 hrs. It is filed as functional, organism-based.
The test system of series [10] is dengue virus type 4. Nature of the series: Antiviral activity against Dengue virus 4 8124 infected in african green monkey Vero cells assessed as inhibition of viral yield after 48 hrs. It is filed as functional, organism-based. Conditions: Dengue virus, 8124, Vero.
The test system of series [11] is dengue virus type 2. Nature of the series: Antiviral activity against Dengue virus 2 NGC infected in BHK21 cells after 48 hrs by plaque reduction assay. The format is functional, organism-based. Conditions: BHK-21, 48 h. (In general: In a plaque reduction assay, fewer plaques than in the control indicate reduced infectivity or spread.)
Series [12] has as its system dengue virus type 2. The series is described as follows: Antiviral activity against Dengue virus 2 NGC infected in BHK21 cells after 24 hrs by plaque reduction assay. The format is functional. Conditions: BHK-21, 24 h.
The nature of series [13]: Cytotoxicity against BHK21 cells after 1 hr by alamar blue assay. The format is cell-based, Mesocricetus auratus, BHK-21. Conditions: hamster.
In series [14] the test system is dengue virus type 2. The series is described as follows: Antiviral activity against Dengue virus 2 assessed as inhibition of viral replication. The format is functional, organism-based.
The target in series [15] is Genome polyprotein (dengue virus type 2, UniProt P29990). The series is described as follows: Inhibition of Dengue virus 2 NS2B-NS3 protease using Abz-Nle-Lys-Arg-Arg-Ser-3-(NO2)Tyr as substrate preincubated for 15 mins followed by addition of substrate measured after 15 mins by fluorescence assay.
Genome polyprotein, sequence (P29990 1346-1475 limits assumed): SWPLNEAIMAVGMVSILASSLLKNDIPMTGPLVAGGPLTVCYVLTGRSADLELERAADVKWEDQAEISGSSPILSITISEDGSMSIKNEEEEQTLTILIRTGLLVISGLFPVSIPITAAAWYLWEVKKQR
Genome polyprotein, sequence (P29990 1476-2093 limits assumed): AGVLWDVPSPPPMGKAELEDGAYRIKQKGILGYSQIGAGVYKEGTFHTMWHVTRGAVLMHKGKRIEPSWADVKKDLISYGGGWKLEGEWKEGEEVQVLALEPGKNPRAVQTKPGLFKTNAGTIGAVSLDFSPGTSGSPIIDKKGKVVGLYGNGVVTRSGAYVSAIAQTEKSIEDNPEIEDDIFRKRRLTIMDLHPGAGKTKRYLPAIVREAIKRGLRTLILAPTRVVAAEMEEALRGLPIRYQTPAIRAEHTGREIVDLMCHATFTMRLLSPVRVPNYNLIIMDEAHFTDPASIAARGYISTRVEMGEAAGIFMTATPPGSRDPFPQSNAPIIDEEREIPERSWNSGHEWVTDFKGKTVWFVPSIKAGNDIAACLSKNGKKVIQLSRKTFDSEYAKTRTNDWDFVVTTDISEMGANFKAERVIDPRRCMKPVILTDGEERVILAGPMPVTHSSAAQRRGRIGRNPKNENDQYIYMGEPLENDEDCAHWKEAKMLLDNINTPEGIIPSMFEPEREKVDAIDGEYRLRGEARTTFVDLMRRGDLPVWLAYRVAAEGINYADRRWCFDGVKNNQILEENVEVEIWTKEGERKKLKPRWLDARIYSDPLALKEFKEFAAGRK
For series [16], the system named is dengue virus type 2. Nature of the series: Antiviral activity against Dengue virus 2 NGC infected in human K562 cells assessed as inhibition in live viral replication after 48 hrs by plaque assay. Conditions: K562, 48 h. The format is functional, organism-based.
Series [17] has as its system dengue virus type 2. Nature of the series: Antiviral activity against Dengue virus 2 16681 infected in human HuH7 cells after 72 hrs by indirect immunofluorescent flow cytometry. Conditions: Dengue virus, 16681, Huh-7, 72 h. It is filed as functional, organism-based. A general note: In flow cytometry, cells or beads pass a laser one at a time.
The test system of series [18] is dengue virus type 2. Nature of the series: Antiviral activity against Dengue virus 2 infected in BHK21 cells assessed after 3 to 5 days by crystal violet staining based plaque assay. The format is functional, organism-based. Conditions: BHK-21.
Series [19] concerns dengue virus type 2. Nature of the series: Antiviral activity against Dengue virus 2 NGC infected in human HuH7 cells assessed as reduction in virus replication after 48 hrs by renilla luciferase reporter gene assay. The format is functional, organism-based. Conditions: Huh-7, 48 h.
The nature of series [20]: Cytotoxicity against human HuH7 cells assessed as cell viability after 48 hrs by CellTiter Glo assay. The format is cell-based, Huh-7.
Series [21] relates to dengue virus type 2. The series is described as follows: Antiviral activity against Dengue virus 2 3295 infected in BHK21 cells after 48 hrs by CFI assay. It is filed as functional, organism-based. Conditions: Dengue virus, 3295, BHK-21, 48 h.
The test system of series [22] is Junin virus. Nature of the series: Antiviral activity against Junin virus IV4454 infected in african green monkey Vero cells assessed as inhibition of viral yield after 48 hrs. It is filed as functional, organism-based. Conditions: Mammarenavirus juninense.

Data on 17 compounds can be found in ChEMBL document CHEMBL4431301, “The Medicinal Chemistry of Dengue Virus” (J Med Chem, 2016).

Where a SMILES comes first, the peptide text is derived from it. [ ]: non-standard residue; d: D form. The star is where a group is joined. Nle = CCCC[C@H](N)C(=O)O; Bz = O=C(c1ccccc1)*

On to `Nc1c(C(=O)Nc2nnc(-c3ccccc3)s2)sc2nc3c(cc12)CCCCC3`, for which the EC50 in [1] worked out at 0.016 µM. Also, the EC90 in [1] was 0.125 µM. For the same compound, the bioavailability in [2] amounted to 9.1%. In addition, the “fold change (FC)” value in series [3] stood at 52; in series [4] it was 3; in series [5], 20. With `CC(C)n1c(/C=C/C(O)CC(O)CC(=O)O)c(-c2ccc(F)cc2)c2ccccc21` (stereo unspecified) [FLUVASTATIN], the EC50 in [6] lay within 1.82 to 8.75 µM. Regarding `C=CCn1c2ccc(Cl)cc2c(=O)c2cccc(OC)c21`, the EC50 in series [7], in [8], in series [9] and in [10] was 13.5 to 27.1 µM throughout.

In [11], `CCCCCCCCCN1C[C@H](O)[C@@H](O)[C@H](O)[C@H]1CO` displayed a concentration for a half-maximal effect (EC50) of 1 µM. For the compound `N#C/C(=N\Nc1ccc(C(F)(F)F)cc1)C(=O)c1ccco1`, the concentration for an effect of 90% (IC90) in series [12] came out at 1.5 µM. In addition, the cytotoxic concentration (CC50) at 1 h in [13] worked out at 84.5 µM. Take `CC(C)(C)OC(=O)NC1C(=O)NC2Cc3ccc(c(Cl)c3)Oc3cc4cc(c3O)Oc3ccc(cc3Cl)C(O)C3NC(=O)C(NC(=O)C4NC(=O)C(NC2=O)c2cc(O)cc(c2)Oc2cc1ccc2O)c1ccc(O)c(c1)-c1c(O)cc(O)cc1C(C(=O)NC12CC4CC(CC(C4)C1)C2)NC3=O` (stereo unspecified): in series [14], the EC50 turned out to be 6.9 µM.

The compound `CCCC[C@H](NC(=O)[C@H](CCCCN)NC(=O)[C@H](CCCNC(=N)N)NC(=O)c1ccccc1)C(N)=O` (Bz-Arg-Lys-[Nle]-NH2) displayed a Ki in series [15] of 15.6 µM. `CC(=C\C(=O)O)/C=C(\C)C[C@H](C)CCCC[C@H]1OC(=O)[C@@H]1CO` [ANTIBIOTIC 1233A]: the EC50 in [16] was 4.5 µM. `COc1c(C)c2c(c(O)c1C/C=C(\C)CCC(=O)O)C(=O)OC2` [MYCOPHENOLIC ACID] registered an EC50 in [17] of 1.9 µM.

`CCN(CC)CCCC(C)Nc1ccnc2cc(Cl)ccc12` (stereo unspecified) [CHLOROQUINE] displayed an EC90 in series [18] of 5.04 µM.

For `CCN(CC)CCO[C@H]1CC[C@@]2(C)C(=CC[C@@H]3[C@@H]2CC[C@]2(C)C(=O)CC[C@@H]32)C1`, in series [19], the half-maximal effective concentration (EC50) worked out at 2.9 µM. Besides, in series [20], the 50% cytotoxic concentration (CC50) at 48 h stood at 34.4 µM. Turning to `NC(=O)c1ncn([C@@H]2O[C@H](CO)[C@@H](O)[C@H]2O)n1` [RIBAVIRIN], the EC50 in series [17] worked out at 40 µM. In turn, `OC[C@@H]1[C@@H](O)[C@H](O)[C@@H](O)CN1CCCCCC1(O)CCCCC1` yielded a concentration for a half-maximal effect (EC50) in series [11] of 2 µM.

With `C=C(CC[C@]12O[C@H](C(=O)O)[C@@](O)(C(=O)O)[C@](C(=O)O)(O1)[C@H](OC(=O)/C=C/[C@@H](C)C[C@@H](C)CC)[C@H]2O)[C@@H](OC(C)=O)[C@H](C)Cc1ccccc1` [ZARAGOZIC ACIDS A], the EC50 in series [16] is 8.3 µM. As for `O[C@H]1[C@H](O)[C@@H](O)CN2CC[C@H](O)[C@H]12` [CASTANOSPERMINE], the 50% effective concentration (EC50) in [21] amounted to 28 µM. Consider `CCCC[C@H](NC(=O)[C@H](CCCCN)NC(=O)[C@H](CCCNC(=N)N)NC(=O)c1ccc(/C=C(\C#N)C(=O)NC2CC2)cc1)C(N)=O`, for which, in series [15], the affinity, expressed as Ki, was 4.9 µM.

As for `C=CCn1c2cc(Cl)ccc2c(=O)c2cccc(OC)c21`, the EC50 in series [7] is 2.5 to 5.5 µM; in series [22] it was 2.5 to 5.5 µM; in [8], 8.3 to 15.9 µM; in [9] it was 8.3 to 15.9 µM; in [10], 19.9 µM.

As usually defined, the EC50 is the concentration giving half of the maximal effect. As usually defined, the EC90 is the concentration needed for an effect of 90%. In general, bioavailability refers to the share of a dose that reaches the circulation, judged against a reference dose that is usually intravenous. As usually defined, the IC90 is the concentration at which the effect reaches the 90% level. Broadly, the CC50 is the concentration giving 50% cytotoxicity. The term Ki denotes a measure of affinity in units of concentration, obtained from inhibition or displacement.
